Results published in US11371099B2, “HEATR1 as a marker for chemoresistance” (MAYO FOUNDATION FOR MEDICAL EDUCATION AND RESEARCH, priority 2015, dated 2022).

What was measured:
[1] = tested on: Akt; settings: cited from earlier work
[2] = tested on: SU86.86, ASPC-1, and PANC-1 cells; experiment: MTS cell survival assay in pancreatic cancer cells transfected with control or HEATR1 siRNA/shRNA; assay type: cell-based, human; settings: HEATR1 siRNA or shRNA vs control
Description: FIG. 1. […] (A) Cells were transfected with indicated siRNA and treated with Gemcitabine. Cell survival was determined. […] (C) SU86.86 cells were transfected with indicated siRNA and treated. Cell survival was determined.
(A) PANC-1 and ASPC-1 cells stably expressing control or HEATR1 shRNA treated with gemcitabine. Cell survival was determined as described in FIG. 1A. The data presented are mean±SD for six independent experiments. […] (B) PANC-1 and ASPC-1 cells were transfected with control or HEATR1 siRNA and then treated with the indicated drugs. Cell survival was determined as described in A. The data presented are mean±SD for six independent experiments.
Human pancreatic cancer cell lines SU86.86, ASPC-1, and PANC-1 were purchased from ATCC in 2014. The identities of these cell lines were confirmed by the medical genome facility at Mayo Clinic Center using short tandem repeat profiling upon receipt. The cell lines were maintained in RPMI 1640 with 10% FBS. HEATR1 cDNA was purchased from Thermo Scientific and full length and mutants were subcloned into pIRES-EGFP. PP2A-Aα, B55α, B56β, Cα were purchased from addgene and subcloned into HA-pcmv and pGex4T-1. HEATR1 siRNA and shRNA were from Dharmacon and Sigma, respectively.
Gemcitabine was from Eli Lilly (Indianapolis, Ind.). Paclitaxel, SN-38, mitomycin c, oxaliplatin and etopside were from Sigma-Aldrich (St. Louis, Mo.). […] Ctrl (Control) or HEATR1 siRNA or shRNA were transfected, and the growth-inhibitory effect was performed as described previously (21). In one embodiment, a MTS assay may be performed by a MTS Cell Proliferation Assay Kit (Colorimetric) (197010); a colorimetric sensitive quantification of viable cells in proliferation and cytotoxicity assays. The assay is based on the reduction of MTS tetrazolium compound by viable cells to generate a colored formazan product that is soluble in cell culture media.

[3] = tested on: SU86.86 cells; experiment: Apoptosis (cleaved PARP1 western blot) in cells expressing control or HEATR1 shRNA; assay type: cell-based, human; settings: control cells vs HEATR1 shRNA cells; 10 μM, 48 hours
Description: (A) SU86.86 cells stably expressing control or HEATR1 shRNA treated with gemcitabine (10 μM). Cell lysate were collect at 48 hours and western blotting was performed with indicated antibodies. (B) Cells stably expressing control or HEATR1 shRNA were seeded in each well (5×10^4/well) and cell numbers were counted every 24 hour. Data are represented as the mean±SD of four independent experiments. We prepared cell lysates, performed immunoprecipitation, and immunoblotting as previously described. In brief, cells were lysed with NETN buffer (20 mM Tris-HCl, pH 8.0, 100 mM NaCl, 1 mM EDTA, 0.5% Nonidet P-40) containing 50 mM b-glycerophosphate, 10 mM NaF, and […] each of pepstatin A and aprotinin. Whole cell lysates were pulse-sonicated and obtained by centrifugation. Whole cell lysates were incubated with 2 μg of antibody and protein A or protein G Sepharose beads (Amersham Biosciences) for 2 hr or overnight at 4° C. The immunocomplexes were then washed with NETN buffer for three times and separated by SDS-PAGE. Immunoblotting was performed following standard procedures. GST fusion proteins were bound to glutathione-Sepharose overnight at 4° C. The beads were washed with PBS four times and incubated with cell lysates for 1 h at 4° C. After washing with NETN for three times, the bound proteins were separated by SDS-PAGE and immunoblotted with indicated antibodies.

[4] = tested on: PANC-1 xenograft tumors; experiment: Tumor xenograft study, PANC-1 cells stably expressing Ctrl or HEATR1 shRNA; assay type: in vivo, mouse; settings: Gemcitabine 50 mg/kg i.p. every 3 days; HEATR1 shRNA vs Ctrl
Description: Xenograft tumors were dissected and tumor weights were measured after mice were sacrificed (C). ANOVA analysis was performed (Mann-Whitney test) +P<0.05, ++P<0.01 (Ctrl vs KD). […] Representative photographs of indicated xenograft tumors were shown in (E). Female athymic nu/nu mice were obtained from the National Cancer Institute. Experiments were performed under the approval of the Institutional Animal Care and Use Committee at Mayo Clinic. PANC-1 cells stably expressing Ctrl and HEATR1 shRNA were injected subcutaneously in mouse flanks (10^6 cells/mouse flank). Tumor volumes were measured every three days. […] After sacrificing the mice, tumors were surgically removed and weighted.

[5] = tested on: pancreatic tumor; settings: dinaciclib combined with MK-2206; cited from earlier work
[6] = patients with advanced solid tumors; cited from earlier work
[7] = tested on: Akt phospho-Thr308 and phospho-Ser473; settings: in vivo, both sensitive and resistant tumors; cited from earlier work
[8] = tested on: Akt; settings: cited from earlier work; remark: listed apart in the source
[9] = tested on: Akt phosphorylation at Thr308; experiment: Western blot of Akt phosphorylation after serum starvation and serum addition; assay type: cell-based, human; settings: SU86.86 cells, pretreated 5 nM
Description: (A) Intracellular co-localization of HEATR1 and AKT were observed by using confocal microscopy in Su86.86, PANC-1 and ASPC-1 cells. (B) Cell lysates were subjected to immunoprecipitation with control IgG or anti-HEATR1 antibodies. The immunoprecipitates were then blotted with indicated antibodies. (C) Cells were transfected with control or HEATR1 siRNA, and the interaction between Akt and PDK1 was examined. (D) SU86.86 Cells transfected with control or HEATR1 siRNA were serum starved for 16 hours (0.1% serum), pretreated with DMSO or okadaic acid (5 nM) and then serum was added. Whole-cell lysates were harvested at indicated time and western blotting was performed with indicated antibodies.
We prepared cell lysates, performed immunoprecipitation, and immunoblotting as previously described. In brief, cells were lysed with NETN buffer (20 mM Tris-HCl, pH 8.0, 100 mM NaCl, 1 mM EDTA, 0.5% Nonidet P-40) containing 50 mM b-glycerophosphate, 10 mM NaF, and […] each of pepstatin A and aprotinin. Whole cell lysates were pulse-sonicated and obtained by centrifugation. Whole cell lysates were incubated with 2 μg of antibody and protein A or protein G Sepharose beads (Amersham Biosciences) for 2 hr or overnight at 4° C. The immunocomplexes were then washed with NETN buffer for three times and separated by SDS-PAGE. Immunoblotting was performed following standard procedures. […]

For `S=C=NCc1ccccc1` [BITC, Benzyl isothiocyanate], the “Phosphorylation of Akt at both Ser-473 and Ser-308” value [1] is listed as “suppresses”.
In the case of `CC[C@@]1(O)C(=O)OCc2c1cc1n(c2=O)Cc2cc3ccccc3nc2-1` [Camptothecin], the “Cell survival / resistance to drug in cells with HEATR1 knockdown versus control” value [2] was “significantly resistant”.
With `Nc1ccn([C@@H]2O[C@H](CO)[C@@H](O)C2(F)F)c(=O)n1` [Gemcitabine] the “Cell survival / resistance to drug in cells with HEATR1 knockdown versus control” value [2] was “increased resistance”, the “Apoptosis activity induced by drug” value [3] was “stronger apoptosis activity in control cells” and the “Tumor response to drug in xenografts with HEATR1 downregulation” value [4] was “resistance to Gemcitabine”.
For `NC1(c2ccc(-c3nc4ccn5c(=O)[nH]nc5c4cc3-c3ccccc3)cc2)CCC1` [MK-2206], the “Pancreatic tumor growth and metastases” value [5] is listed as “dramatically block” and the Tolerability [6] is listed as “well tolerated”.
In the case of `CCCCCCCCCCCCc1ccc(S(=O)(=O)Nc2nncs2)cc1` [PHT-427], the “Akt phospho-Thr308 and phospho-Ser473 in tumors” value [7] is listed as “decreased” and the “Akt activity in resistant cancer cells” value [8] is listed as “increase in Akt activity”.
In the case of `CCc1c2c(nc3ccc(O)cc13)-c1cc3c(c(=O)n1C2)COC(=O)[C@]3(O)CC` [SN-38], the “Cell survival / resistance to drug in cells with HEATR1 knockdown versus control” value [2] was “significantly resistant”.
In the case of `COc1cc([C@@H]2c3cc4c(cc3[C@@H](O[C@@H]3O[C@@H]5CO[C@@H](C)O[C@H]5[C@H](O)[C@H]3O)[C@H]3COC(=O)[C@H]23)OCO4)cc(OC)c1O` [etopside], the “Cell survival / resistance to drug in cells with HEATR1 knockdown versus control” value [2] was “significantly resistant”.
In the case of `CO[C@@]12[C@H](COC(N)=O)C3=C(C(=O)C(C)=C(N)C3=O)N1C[C@@H]1N[C@@H]12` [mitomycin c], the “Cell survival / resistance to drug in cells with HEATR1 knockdown versus control” value [2] was “significantly resistant”.
For `C=C1[C@@H](O)[C@@H]2O[C@]3(CC[C@H](/C=C/[C@@H](C)[C@@H]4CC(C)=C[C@@]5(O[C@H](C[C@@](C)(O)C(=O)O)CC[C@H]5O)O4)O3)CC[C@H]2O[C@@H]1[C@@H](O)C[C@H](C)[C@H]1O[C@@]2(CCCCO2)CC[C@H]1C` [okadaic acid], the “Akt phosphorylation at Thr308” value [9] was “significantly increased”.
For `O=C1[O][Pt]2([NH][C@@H]3CCCC[C@H]3[NH]2)[O]C1=O` [oxaliplatin], the “Cell survival / resistance to drug in cells with HEATR1 knockdown versus control” value [2] was “significantly resistant”.
With `CC(=O)O[C@H]1C(=O)[C@@]2(C)[C@H]([C@H](OC(=O)c3ccccc3)[C@]3(O)C[C@H](OC(=O)[C@H](O)[C@@H](NC(=O)c4ccccc4)c4ccccc4)C(C)=C1C3(C)C)[C@]1(OC(C)=O)CO[C@@H]1C[C@@H]2O` [paclitaxel] the “Cell survival / resistance to drug in cells with HEATR1 knockdown versus control” value [2] was “significantly resistant”.
